Patent US20220296108A1, “METHOD AND APPARATUS FOR QUANTITATION OF MICROCIRCULATION” (Seoul National University Hospital, priority 2019, published 2022)

Assays:
CLP mouse model [1] = experiment: Arterial blood gas analysis in CLP mouse model before and after abciximab; assay type: in vivo; settings: post-Abc CLP mouse vs normal group (Sham)
Method: In addition, arterial blood gas analysis was performed to assess the oxygen partial pressure and carbon dioxide partial pressure in the arterial blood of the pre-Abc mouse model and the post-Abc mouse model. Specifically, a 1-mL syringe with a 22-gauge needle was coated with heparin and introduced into the left ventricle of the heart of the normal mouse model (Sham) (n=8), pre-Abc mouse model (Fc) (n=10) and post-Abc mouse model (Abc) (n=6). Then, about 200 μL of blood was sampled and analyzed with an i-STAT handheld blood analyzer (G3 cartridge, Abbott Point of Care Inc.). The mice were euthanized in a CO2 chamber right after the blood sampling.

CLP mouse model [2] = experiment: Histological analysis of the number of sequestered neutrophils (Ly6G+ cells) in Mac-1-inhibited CLP mouse model; assay type: in vivo; settings: vs CLP mouse model (Fc) and normal group (Sham), FIG. 28B
Source text: Specifically, lung tissues were harvested after intravital imaging of the mouse models. The tissues were perfused and fixed with 4% paraformaldehyde and then further fixed overnight in 4% paraformaldehyde. For H&E (hematoxylin and eosin) staining, the fixed tissues were processed using standard procedures, embedded in paraffin and then sliced into 4-μm sections, followed by conventional H&E staining.

CLP mouse model [3] = experiment: Functional capillary ratio (FCR) by intravital lung imaging in Mac-1-inhibited CLP mouse model
Method: CLP model was performed by a single experienced operator according to a previously described method. Specifically, 75% of the cecum of the LysM^GFP/+ mouse was ligated with 6-0 black silk and single puncture with a dual hole in the distal cecum was made with a 21-gauge needle. After the puncture, the cecum was gently squeezed to confirm the patency of the puncture hole for extrusion of feces. The cecum was replaced to the abdominal cavity and the abdominal incision was closed with 4-0 black silk. A normal group (sham group) underwent the same surgical procedure except the cecal ligation and puncture. […]
Specifically, three continuous laser modules (488 nm (MLD488, Cobolt), 561 nm (Jive, Cobolt) and 640 nm (MLD640, Cobolt)) were utilized as excitation light sources for multi-color fluorescence imaging. […] The fluorescence signals emitted from the lung of the mouse model on a XYZ translational 3D stage (3DMS, Sutter Instrument) were epi-detected by the objective lenses. De-scanned three-color fluorescence signals were spectrally divided by diachronic beam splitters (DBS4; FF560-Di01, DBS5; FF649-Di01, Semrock) and then detected by a photomultiplier (PMT; R9110, Hamamatsu) through bandpass filters (BPF1; FF02-525/50, BPF2; FF01-600/37, BPF3; FF01-685/40, Semrock). […]

abciximab
Oxygen partial pressure in arterial blood (CLP mouse model [1]; FIG. 31A): comparable to that of the normal group
Carbon dioxide partial pressure in arterial blood (CLP mouse model [1]; FIG. 31B): comparable to that of the normal group
Number of sequestered neutrophils (Ly6G+ cells) (CLP mouse model [2]): recovered to a level comparable to that of the normal group
Functional capillary ratio (FCR) increase after vs before abciximab administration (CLP mouse model [3]; CLP mouse imaged 6 hours after CLP (pre-Abc), then 30 minutes after abciximab (post-Abc)): ≥ 2 times
Dead space and functional capillaries in pulmonary microcirculation imaging (CLP mouse model [3]; CLP mouse, vs CLP mouse model (Fc), FIG. 27): dead space was decreased
